Measurements published in US11571481B2, “Peptide-linked drug delivery system” (priority 2020, dated 2023).
Entries after “also recorded” stand apart in the source; their conditions may differ. Where a SMILES comes first, the peptide text is derived from it. [ ]: non-standard residue; d: D form. The star is where a group is joined. X1 = COc1cc2cc(c1Cl)N(C)C(=O)C[C@H](OC(=O)[C@H](C)N(C)C(=O)CCS*)[C@]1(C)O[C@H]1[C@H](C)[C@@H]1C[C@@](O)(NC(=O)O1)[C@H](OC)/C=C/C=C(\C)C2; βAla = NCCC(=O)O; Mpa = O=C(O)CCS

What was measured:
[1] = Nephrotoxicity studies (urinary NGAL and KIM-1, kidney histology and IHC); type: in vivo, BALB/c mice; settings: for induction of KIM-1 and/or NGAL: i.v., at 3 days
Procedure: The level of the acute renal injury biomarkers, neutrophil gelatinase-associated lipocalin (NGAL) and kidney injury molecule-1 (KIM-1) in the urine samples, were measured using ELISA assays according to the manufacturer's instructions (R&D Systems, Minneapolis, Minn.). […] All the animals (n=3/group) were euthanized at the end of the treatment and the kidneys were collected and fixed in 10% neutral buffered formalin. The tissues were then processed, embedded in paraffin, sectioned, and stained with H&E. Immunohistochemistry (IHC) for kidney injury (NGAL and KIM-1) was also performed.

[2] = Fluorescence imaging of Cy-peptide analogues (whole body, urine, ex vivo organs); settings: i.v. 0.5 nmol, images 1 and 4 h
Procedure: Fluorescence imaging—Female SHO mice (Charles River Laboratories, Wilmington, Mass.) were administered with free Cyanine5.5 or Cy-peptide analogues (0.5 nmol of Cyanine5.5 content measured by UV absorbance at 680 nm) in a PBS (150 μL) via tail-vein injections (n=4/group). Real-time fluorescence imaging was performed using In vivo Xtreme imaging system (Bruker, Billerica, Mass.). Whole body fluorescence images were acquired 1 and 4 h post injection using the appropriate excitation (670 nm) and emission (750 nm) filters. The animals were then euthanized. The organs were excised to perform ex vivo fluorescence imaging. Imaging was also performed on urine samples (50 μL) collected from separate animals 1 h after i.v. injection of free dye or Cy-peptide analogues (n=4/treatment). Bruker MI software was used to process the fluorescence/bright light images and measure the fluorescence intensity in different ROIs. All the data were corrected to eliminate the organ or fluid auto-fluorescence.

[3] = Immunogenicity assay (plasma cytokines by ELISA); type: in vivo, BALB/c mice; settings: 5 mg/kg i.v., 4 h after injection
Procedure: Immunogenicity assay—Female BALB/c mice were treated with a single dose of Bdd or LPS (5 mg/kg) via tail-vein injection (n=3/group). Mice administered with PBS were used as a negative control. Blood samples were collected 4 h later via retro-orbital sinus puncture technique, and the concentration of the innate immune and inflammatory cytokines IL1β, IL2, IL6, IL10, TNF-α, and INF-γ in plasma was measured with commercial sandwich enzyme-linked immunosorbent assay kits. ELISA assays were performed according to the manufacturer's instructions (Invitrogen, Carlsbad, Calif.).

[4] = Toxicity profile in healthy animals (hematology, serum biochemistry, necropsy); type: in vivo, BALB/c mice; settings: for hematology (red blood cell, leukocyte, platelet counts, morphology) / histopathology of liver, spleen, heart, lungs, kidneys / serum liver enzymes (ALP, ALT, AST) / urea nitrogen/creatinine ratio: DM1, DM1-Bdd 0.75 mg/kg
Excerpt: At the end of a 3-week treatment, mice were euthanized. The organs/tissues were harvested, fixed in 10% neutral buffered formalin for 2 days. Bones were decalcified in a formic acid solution (Surgipath Decalcifier I; Leica Biosystems, Weltzar, Germany). The samples were then embedded in paraffin, sectioned (5 μm), and stained with H&E for examination by an ACVP board certified anatomic pathologist.
Hematology and biochemistry—Blood samples were collected via cardiac puncture. A complete blood count, including red blood cell, white blood cell, reticulocyte and platelet counts, with an automated differential leukocyte count, was performed using an IDEXX Procyte DX hematology analyzer (iDEXX, Westbrook, Me.). Blood smears were prepared, stained with modified Wright's stain, examined in a blinded fashion by a board-certified veterinary clinical pathologist (T. S.), and imaged using a Nikon Eclipse TE2000-U fluorescent microscope equipped with a photometrics CoolSNAP HQ^2 camera (Nikon Corporation, Tokyo, Japan). The blood was also centrifuged (1,500×G) for 15 min to obtain the serum for biochemical analysis using a Beckman Coulter AU680 analyzer (Beckman Coulter, Brea, Calif.).

[5] = design: species or system BALB/c mice; settings: mouse, in vivo, iv
Procedure: Pharmacokinetic study—BALB/c mice (Jackson Laboratory, Bar Harbor, Me.) were administered with ^89Zr-peptide or free ^89Zr (20 μCi, 100 μL) via tail-vein injections (n=4/condition). Blood samples (20 μL) were collected at various time intervals, using retro-orbital sinus puncture technique. The radioactivities were measured on Wallac Wizard 2 gamma counter (Perkin-Elmer, Waltham, Mass.). The pharmacokinetic models and parameters of ^89Zr-peptides and free ^89Zr, including the serum half-life and the plasma clearance, were estimated by fitting the data for compartmental model selection using PKSolver 2.0 software.

[6] = μPET/CT imaging and end-point biodistribution study of ^89Zr-peptides; type: in vivo, BALB/c mice
Procedure: μPET/CT imaging and biodistribution study—BALB/c mice were intravenously injected with different ^89Zr-peptide analogues (20 μCi, 100 μL). μPET/CT imaging was performed in animals with and without urine collection prior to the first imaging (n=4/analogue/condition). Whole-body images were acquired 1, 4, and 24 h after injection, using Inveon μPET/CT scanner (Siemens Medical Solutions, Malvern, Pa.). μPET/CT maximum […] projections were processed using Amide v1.0.4 and Inveon Research Workplace software. The radioactivities at different region of interest (ROI) were determined. For end-point biodistribution studies, the mice were euthanized 0.17, 1, 2, 5, and 7 days after treatment with ^89Zr-peptides (n=3/peptide analogue/time point). The radioactivities of the harvested organs were measured using the Wallac Wizard 2 gamma counter. The results were corrected from radioactive decay, and were expressed as a percentage of the injected dose (% ID) or percentage of injected dose per gram of tissue (% ID/g).

[7] = tested on: orthotopic human UMUC-3/GFP-Luc bladder tumors; assay: Therapeutic efficacy of drug-Bdd conjugates for treating BC (orthotopic xenograft)
Procedure: Therapeutic efficacy of drug-Bdd conjugates for treating BC—Animals were orthotopically implanted with tumors as previously described. Briefly, the urine of 7- to 9-week-old female NSG mice (Jackson Laboratory, Bar Harbor, Me.) was remove through a sterile 24 G pediatric venous catheter (Dublin, Ireland). A trypsin solution (0.125%, 80 μL) was then delivered into the bladder, Subsequently. UMUC-3/GFP-Luc cells (4×10^4 cells) in culture media (50 μL) were transferred into the bladders and allowed for seeding. Tumor progression was monitored by bioluminescence imaging. Luciferin (3 mg) in PBS (100 μL) was given to the animals (via intraperitoneal injection) 15 min prior to performing imaging. […] The therapeutic efficacy was evaluated based on tumor growth inhibition (bioluminescence imaging) and long-term survival.

panel of BC cell lines = assay: Cell viability and cytotoxicity assay (CellTiter Glo, 72 h); type: cell-based
Procedure: (§1) Cell viability and cytotoxicity assay—Cancer cells (3×10^3/well) were seeded on a flat bottom 96-well plate overnight. […] CellTiter Glo reagent (Promega, Madison, Wis.) was added in each well (50 μL). The luminescence generated was recorded using a microplate reader (Tecan US Inc., Morrisville, N.C.). The dose response curves were plotted, and the half maximal inhibitory concentrations (IC50 values) were calculated using Graph Pad Prism 6.0 software.

UMUC-3 = assay: as above; type: cell-based, human; settings: UMUC-3, 72 h
Procedure: as §1

[8] = tested on: Renca/GFP-Luc tumors in kidney capsule; assay: Evaluation of DM1-Bdd for kidney cancer treatment (syngeneic orthotopic model); type: in vivo, BALB/c mice
Excerpt: The animals were monitored for tumor growth inhibition and survival as described above. Additional mice were used for histopathological analysis (n=4/group).
Slides were then counterstained with Hematoxylin.

Renca = assay: Cell viability and cytotoxicity assay (CellTiter Glo, 72 h); type: cell-based, murine
Procedure: as §1

[9] = i.v. 0.75 mg/kg of drug content weekly for 3 weeks
[10] = i.v. weekly for 3 weeks, CIS 10 mg/kg

## CO[C@@]12[C@H](COC(N)=O)C3=C(C(=O)C(C)=C(N)C3=O)N1C[C@@H]1N[C@@H]12 [MIT, Mitomycin]
[1]
  induction of KIM-1 and/or NGAL: continued induction

## Cyanine5.5
[2]
  elimination route / main organ uptake by fluorescence imaging: mainly taken up by the liver

## NCCC(=O)N[C@H](CC(=O)O)C(=O)N[C@H](CC(=O)O)C(=O)NCCC(=O)N[C@H](CC(=O)O)C(=O)N[C@H](CC(=O)O)C(=O)NCCC(=O)N[C@H](CC(=O)O)C(=O)N[C@H](CC(=O)O)C(=O)NCCC(=O)N[C@H](CC(=O)O)C(=O)N[C@H](CC(=O)O)C(N)=O [Bdd] (HELM PEPTIDE1{[bAla].[dD].[dD].[bAla].[dD].[dD].[bAla].[dD].[dD].[bAla].[dD].[dD].[am]}$$$$V2.0; N-terminus assumed)
[3]
  inflammatory cytokine levels (IL-1β, IL-2, IL-6, IL-10, TNF-α, INF-γ) in plasma: no increase

## COc1cc2cc(c1Cl)N(C)C(=O)C[C@H](OC(=O)[C@H](C)N(C)C(=O)CCSSCCC(=O)NCCC(=O)N[C@H](CC(=O)O)C(=O)N[C@H](CC(=O)O)C(=O)NCCC(=O)N[C@H](CC(=O)O)C(=O)N[C@H](CC(=O)O)C(=O)NCCC(=O)N[C@H](CC(=O)O)C(=O)N[C@H](CC(=O)O)C(=O)NCCC(=O)N[C@H](CC(=O)O)C(=O)N[C@H](CC(=O)O)C(N)=O)[C@]1(C)O[C@H]1[C@H](C)[C@@H]1C[C@@](O)(NC(=O)O1)[C@H](OC)/C=C/C=C(\C)C2 [DM1-Bdd] ([Mpa](X1)[βAla][dD][dD][βAla][dD][dD][βAla][dD][dD][βAla][dD][dD]-NH2)
[4]; [9]
  hepatotoxicity: not hepatotoxic
[4]; [10]
  hematology (red blood cell, leukocyte, platelet counts, morphology): did not affect
  histopathology of liver, spleen, heart, lungs, kidneys: no morphological evidence of injury
  serum liver enzymes (ALP, ALT, AST): no significant alteration
  urea nitrogen/creatinine ratio: normal
[1]; 3 days after i.v. administration
  immunoreactivity of kidney sections for KIM-1 and NGAL compared to PBS: no elevation of the immunoreactivity
[1]; 3 days after i.v. drug administration, CIS 10 mg/kg, DM1-Bdd 0.75 mg/kg
  histologic examination of kidneys: did not reveal any abnormalities
[1]; single i.v. dose 0.75 mg/kg of drug content
  time for urinary KIM-1 and NGAL to return to basal levels: ≤ 3 days
[1]; single i.v. dose 0.75 mg/kg of drug content, 1 day after injection
  urinary KIM-1 and NGAL levels: slightly increased

## CC(=O)N(O)CCCCCNC(=O)CCC(=O)N(O)CCCCCNC(=O)CCC(=O)N(O)CCCCCNC(=S)Nc1ccc(NC(=S)NCCC(=O)N[C@H](CC(=O)O)C(=O)N[C@H](CC(=O)O)C(=O)NCCC(=O)N[C@H](CC(=O)O)C(=O)N[C@H](CC(=O)O)C(=O)NCCC(=O)N[C@H](CC(=O)O)C(=O)N[C@H](CC(=O)O)C(=O)NCCC(=O)N[C@H](CC(=O)O)C(=O)N[C@H](CC(=O)O)C(N)=O)cc1 [^89Zr-Bdd, metal not drawn] (HELM PEPTIDE1{[CC(=O)N(O)CCCCCNC(=O)CCC(=O)N(O)CCCCCNC(=O)CCC(=O)N(O)CCCCCNC(=S)Nc1ccc(NC(=S)[*:2])cc1].[bAla].[dD].[dD].[bAla].[dD].[dD].[bAla].[dD].[dD].[bAla].[dD].[dD].[am]}$$$$V2.0)
[5]; BALB/c
  terminal half-life: 31.8 min
[5]
  plasma clearance: rapid
[6]; i.v., confirmed by absence of radioactivity in emptied bladders
  time to excretion into the urine after i.v. administration: ≤ 1 h
[6]; mouse, in vivo
  ID found in kidneys: 15.1 % ID
  ID found in kidneys after 7 days: 2.1 % ID
[6]; mouse, in vivo, iv
  peptide in major organs or blood circulation: No peptide in major organs or blood circulation was detected

## COc1cccc2c1C(=O)c1c(O)c3c(c(O)c1C2=O)C[C@@](O)(C(=O)CO)C[C@@H]3O[C@H]1C[C@H](N)[C@H](O)[C@H](C)O1 [DOX, Doxorubicin]
[7]; 5 mg/kg of drug content weekly for 3 weeks
  animal survival: shorter life expectancy compared to the PBS control
[7]; DOX 5 mg/kg weekly
  drug-induced mortality: died prior to receiving the final dose

## Nc1ccn([C@@H]2O[C@H](CO)[C@@H](O)C2(F)F)c(=O)n1 [GEM, gemcitabine]
[1]
  induction of KIM-1 and/or NGAL: continued induction

## COc1cc2cc(c1Cl)N(C)C(=O)C[C@H](OC(=O)[C@H](C)N(C)C(=O)CCS)[C@]1(C)O[C@H]1[C@H](C)[C@@H]1C[C@@](O)(NC(=O)O1)[C@H](OC)/C=C/C=C(\C)C2 [DM1, N2′-deacetyl-N2′-(3-mercapto-1-oxopropyl)-maytansine]
Panel of BC cell lines
  potency relative to commonly used ITC drugs (MIT, DOX and CIS): 100 fold
UMUC-3
  IC50 values: nanomolar (nM) range
  potency compared to other conventional chemotherapeutics: more potent than cisplatin (CIS), doxorubicin (DOX) and mitomycin (MIT), and as effective as gemcitabine (GEM)
[4]; i.v. weekly for 3 weeks, DM1 0.75 mg/kg, CIS 10 mg/kg
  muscle injury (CK activity): induced muscle injury
[4]; [10]
  hematology (red blood cell, leukocyte, platelet counts, morphology): reticulocytosis without apparent anemia; also recorded: inflammatory response characterized by increased proportions of neutrophils, monocytes, and platelets
  histopathology of liver, spleen, heart, lungs, kidneys: Increased splenic and hepatic EMH
  serum liver enzymes (ALP, ALT, AST): increases
  urea nitrogen/creatinine ratio: increases
[8]; either i.v. or i.t., 0.75 mg/kg weekly
  survival: died
[8]; one week after completing the treatment course
  histological examination of kidneys (tumor): large and accompanied with an infiltration of mononuclear cells
Renca
  activity against Renca cell line: effective
[1]
  induction of KIM-1 and/or NGAL: continued induction
[7]; [9]
  animal survival compared to i.t. MIT: prolonged animal survival
  tumor growth inhibition compared to i.t. MIT: more effective in inhibiting tumor growth
[7]; i.v. 0.75 mg/kg weekly for 3 weeks
  overall survival after 100 days: 0%
